Data reported in PMC6211260 (Journal of Enzyme Inhibition and Medicinal Chemistry, 2018).
Like-named read-outs stand apart in the source and are kept apart here.

Tests used:
GSK3b = biological target: T1, GSK3b (Homo sapiens, UniProt P49841); test: In vitro kinase screening (Kinase HotSpot); type: biochemical; details: single dose of 10 µM
T1 construct: purchased Reaction Biology Corp
Text: (§1) To investigate the biological target of compound, Reaction Biology Corp. Kinase HotSpotSM service was used adopting standard assay protocol.

CDK2/cyclin E = biological target: T2, CDK2/cyclin E (Homo sapiens, UniProt P24941); test: In vitro kinase screening (Kinase HotSpot); type: biochemical; details: single dose of 10 µM
T2 construct: purchased Reaction Biology Corp
Text: as §1

JNK2 = biological target: T3, JNK2 (Homo sapiens, UniProt P45984); test: In vitro kinase screening (Kinase HotSpot); type: biochemical; details: single dose of 10 µM
T3 construct: purchased Reaction Biology Corp
T3 sequence (P45984 whole entry): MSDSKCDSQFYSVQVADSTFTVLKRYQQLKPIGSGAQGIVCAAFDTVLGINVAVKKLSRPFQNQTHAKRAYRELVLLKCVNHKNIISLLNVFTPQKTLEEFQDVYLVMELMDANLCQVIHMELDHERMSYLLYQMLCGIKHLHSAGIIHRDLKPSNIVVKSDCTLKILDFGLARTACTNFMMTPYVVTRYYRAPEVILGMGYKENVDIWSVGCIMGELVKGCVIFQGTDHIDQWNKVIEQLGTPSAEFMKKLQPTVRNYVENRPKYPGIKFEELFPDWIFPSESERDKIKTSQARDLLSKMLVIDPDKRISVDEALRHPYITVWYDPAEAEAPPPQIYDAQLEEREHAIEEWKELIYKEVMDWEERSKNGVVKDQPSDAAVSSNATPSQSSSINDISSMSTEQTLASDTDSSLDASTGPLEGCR
Text: as §1

BRAF (V600E) = biological target: T4, BRAF (V600E) (Homo sapiens, UniProt P15056, V600E); test: In vitro kinase screening (Kinase HotSpot); type: biochemical; details: single dose of 10 µM, BRAF (V599E) in Table 6, BRAF (V600E) in text
T4 construct: purchased Reaction Biology Corp
T4 sequence (P15056 whole entry V600E): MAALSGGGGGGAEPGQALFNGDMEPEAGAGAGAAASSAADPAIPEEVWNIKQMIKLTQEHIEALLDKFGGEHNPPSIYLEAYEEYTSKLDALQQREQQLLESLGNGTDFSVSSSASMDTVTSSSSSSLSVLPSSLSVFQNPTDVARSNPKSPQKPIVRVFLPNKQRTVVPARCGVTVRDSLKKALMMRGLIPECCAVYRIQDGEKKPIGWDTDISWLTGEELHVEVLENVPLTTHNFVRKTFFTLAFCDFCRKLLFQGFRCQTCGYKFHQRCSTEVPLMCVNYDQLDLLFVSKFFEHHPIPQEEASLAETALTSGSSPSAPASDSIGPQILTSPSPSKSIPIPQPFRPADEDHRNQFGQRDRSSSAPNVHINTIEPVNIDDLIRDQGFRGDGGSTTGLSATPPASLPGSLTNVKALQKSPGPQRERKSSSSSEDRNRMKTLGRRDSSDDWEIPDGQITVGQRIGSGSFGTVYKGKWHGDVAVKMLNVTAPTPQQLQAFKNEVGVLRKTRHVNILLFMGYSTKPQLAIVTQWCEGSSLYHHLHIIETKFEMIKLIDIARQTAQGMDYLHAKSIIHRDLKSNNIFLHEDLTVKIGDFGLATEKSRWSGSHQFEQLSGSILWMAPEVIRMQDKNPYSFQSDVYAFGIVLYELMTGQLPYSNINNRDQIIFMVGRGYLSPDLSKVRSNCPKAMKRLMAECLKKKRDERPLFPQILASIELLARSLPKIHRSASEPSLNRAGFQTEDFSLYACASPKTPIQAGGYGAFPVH
Text: as §1

EGFR = biological target: T5, EGFR (Homo sapiens, UniProt P00533); test: In vitro kinase screening (Kinase HotSpot); type: biochemical; details: single dose of 10 µM
T5 construct: purchased Reaction Biology Corp
T5 sequence (P00533 25-1210): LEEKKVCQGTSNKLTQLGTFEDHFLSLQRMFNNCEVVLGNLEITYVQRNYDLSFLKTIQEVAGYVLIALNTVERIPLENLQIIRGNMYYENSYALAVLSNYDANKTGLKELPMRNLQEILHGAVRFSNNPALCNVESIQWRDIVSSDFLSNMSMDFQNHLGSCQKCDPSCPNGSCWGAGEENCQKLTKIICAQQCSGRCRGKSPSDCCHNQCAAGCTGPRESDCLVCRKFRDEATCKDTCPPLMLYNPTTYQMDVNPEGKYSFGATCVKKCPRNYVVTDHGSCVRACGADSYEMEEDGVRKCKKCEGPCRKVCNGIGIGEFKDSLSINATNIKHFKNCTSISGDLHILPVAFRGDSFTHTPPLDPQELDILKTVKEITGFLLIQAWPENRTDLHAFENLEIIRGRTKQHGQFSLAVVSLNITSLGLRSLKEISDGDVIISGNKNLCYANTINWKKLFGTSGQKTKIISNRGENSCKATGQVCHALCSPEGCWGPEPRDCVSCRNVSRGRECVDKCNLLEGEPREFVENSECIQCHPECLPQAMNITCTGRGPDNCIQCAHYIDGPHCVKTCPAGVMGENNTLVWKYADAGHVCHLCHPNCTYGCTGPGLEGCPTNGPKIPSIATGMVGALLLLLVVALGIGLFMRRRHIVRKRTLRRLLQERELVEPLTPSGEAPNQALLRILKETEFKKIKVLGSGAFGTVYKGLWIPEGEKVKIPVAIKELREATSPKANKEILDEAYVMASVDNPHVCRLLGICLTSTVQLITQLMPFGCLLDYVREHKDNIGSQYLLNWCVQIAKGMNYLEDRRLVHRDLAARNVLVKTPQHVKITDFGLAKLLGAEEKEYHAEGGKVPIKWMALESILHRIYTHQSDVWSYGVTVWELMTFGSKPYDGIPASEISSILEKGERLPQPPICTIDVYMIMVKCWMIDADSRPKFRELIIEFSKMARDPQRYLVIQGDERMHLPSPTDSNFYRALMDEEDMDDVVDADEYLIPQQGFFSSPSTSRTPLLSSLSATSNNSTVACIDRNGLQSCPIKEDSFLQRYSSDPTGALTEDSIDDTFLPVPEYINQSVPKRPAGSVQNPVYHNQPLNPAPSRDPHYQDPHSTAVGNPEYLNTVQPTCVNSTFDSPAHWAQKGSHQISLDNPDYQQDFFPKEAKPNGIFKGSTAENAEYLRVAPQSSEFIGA
Text: as §1

P38a/MAPK14 = biological target: T6, P38a/MAPK14 (Homo sapiens, UniProt Q16539); test: In vitro kinase screening (Kinase HotSpot); type: biochemical; details: single dose of 10 µM, P38a/MAPK14
T6 construct: purchased Reaction Biology Corp
T6 sequence (Q16539 whole entry): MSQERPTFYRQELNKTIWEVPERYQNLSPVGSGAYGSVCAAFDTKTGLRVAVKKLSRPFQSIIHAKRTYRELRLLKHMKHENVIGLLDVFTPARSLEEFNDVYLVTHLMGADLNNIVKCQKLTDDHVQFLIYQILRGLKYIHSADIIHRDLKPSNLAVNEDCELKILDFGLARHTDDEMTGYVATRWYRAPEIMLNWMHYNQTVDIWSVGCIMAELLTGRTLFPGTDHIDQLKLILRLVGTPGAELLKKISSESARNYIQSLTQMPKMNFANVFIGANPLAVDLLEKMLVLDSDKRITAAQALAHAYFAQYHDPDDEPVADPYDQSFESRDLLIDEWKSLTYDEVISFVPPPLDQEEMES
Text: as §1

BRAF = biological target: T7, BRAF (Homo sapiens, UniProt P15056); test: In vitro kinase screening (Kinase HotSpot); type: biochemical; details: single dose of 10 µM
T7 construct: purchased Reaction Biology Corp
T7 sequence (P15056 whole entry): as the sequence (P15056 whole entry V600E) above, with E600V counted along it
Text: as §1

ABL1 (T315I) = biological target: T8, ABL1 (T315I) (Homo sapiens, UniProt P00519, T315I); test: In vitro kinase screening (Kinase HotSpot); type: biochemical; details: single dose of 10 µM
T8 construct: purchased Reaction Biology Corp
Text: as §1

JNK3 = biological target: T9, JNK3 (Homo sapiens, UniProt P53779); test: In vitro kinase screening (Kinase HotSpot); type: biochemical; details: single dose of 10 µM
T9 construct: purchased Reaction Biology Corp
T9 sequence (P53779 whole entry): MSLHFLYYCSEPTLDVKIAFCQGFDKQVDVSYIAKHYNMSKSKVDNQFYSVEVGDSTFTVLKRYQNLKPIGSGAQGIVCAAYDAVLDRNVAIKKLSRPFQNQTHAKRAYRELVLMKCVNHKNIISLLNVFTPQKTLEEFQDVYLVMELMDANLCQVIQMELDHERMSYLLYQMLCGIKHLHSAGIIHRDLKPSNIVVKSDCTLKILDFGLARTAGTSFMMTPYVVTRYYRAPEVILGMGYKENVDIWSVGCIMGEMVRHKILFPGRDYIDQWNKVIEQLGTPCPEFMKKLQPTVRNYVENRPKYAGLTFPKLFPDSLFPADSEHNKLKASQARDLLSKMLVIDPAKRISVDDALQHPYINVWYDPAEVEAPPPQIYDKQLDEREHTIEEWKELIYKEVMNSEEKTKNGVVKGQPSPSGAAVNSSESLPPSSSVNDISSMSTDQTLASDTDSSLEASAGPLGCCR
Text: as §1

IKKb/IKBKB = biological target: T10, IKKb/IKBKB (Homo sapiens, UniProt O14920); test: In vitro kinase screening (Kinase HotSpot); type: biochemical; details: single dose of 10 µM
T10 construct: purchased Reaction Biology Corp
T10 sequence (O14920 1-756): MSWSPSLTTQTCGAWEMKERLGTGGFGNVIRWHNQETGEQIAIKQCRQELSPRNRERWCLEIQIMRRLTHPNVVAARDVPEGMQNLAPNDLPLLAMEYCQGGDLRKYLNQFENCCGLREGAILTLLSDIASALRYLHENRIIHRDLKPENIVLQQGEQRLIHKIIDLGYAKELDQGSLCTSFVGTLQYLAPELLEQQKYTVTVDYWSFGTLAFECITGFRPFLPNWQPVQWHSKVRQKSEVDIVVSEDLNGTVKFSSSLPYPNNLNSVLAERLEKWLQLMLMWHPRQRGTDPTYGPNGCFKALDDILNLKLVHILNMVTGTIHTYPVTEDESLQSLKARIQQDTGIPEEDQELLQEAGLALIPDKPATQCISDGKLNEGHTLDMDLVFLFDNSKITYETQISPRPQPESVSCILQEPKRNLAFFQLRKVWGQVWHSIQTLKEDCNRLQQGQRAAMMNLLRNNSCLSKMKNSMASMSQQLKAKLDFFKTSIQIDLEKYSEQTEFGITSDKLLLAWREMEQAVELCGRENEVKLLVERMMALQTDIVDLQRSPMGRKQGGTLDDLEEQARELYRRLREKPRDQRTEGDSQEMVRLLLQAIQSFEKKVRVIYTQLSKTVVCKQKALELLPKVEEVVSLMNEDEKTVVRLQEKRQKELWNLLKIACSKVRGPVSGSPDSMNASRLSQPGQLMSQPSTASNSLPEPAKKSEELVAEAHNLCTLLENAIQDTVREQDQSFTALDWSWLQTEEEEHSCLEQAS
Text: as §1

JNK1 = biological target: T11, JNK1 (Homo sapiens, UniProt P45983); test: In vitro kinase screening (Kinase HotSpot); type: biochemical; details: single dose of 10 µM
T11 construct: purchased Reaction Biology Corp
T11 sequence (P45983 whole entry): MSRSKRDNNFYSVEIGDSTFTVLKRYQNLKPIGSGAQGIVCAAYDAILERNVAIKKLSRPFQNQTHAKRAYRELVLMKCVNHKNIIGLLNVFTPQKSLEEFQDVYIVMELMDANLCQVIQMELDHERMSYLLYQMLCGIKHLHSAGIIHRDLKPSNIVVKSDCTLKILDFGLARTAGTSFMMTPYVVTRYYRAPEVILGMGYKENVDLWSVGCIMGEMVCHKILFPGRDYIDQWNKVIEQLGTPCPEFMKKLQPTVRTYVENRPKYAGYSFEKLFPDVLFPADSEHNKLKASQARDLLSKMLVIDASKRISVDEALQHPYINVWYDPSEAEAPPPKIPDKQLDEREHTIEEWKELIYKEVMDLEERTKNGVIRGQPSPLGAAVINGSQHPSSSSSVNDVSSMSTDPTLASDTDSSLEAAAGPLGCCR
Text: as §1

[1] = test system: K-562 leukaemia cell line; test: NCI five-dose testing; type: cell-based; details: for IC (TGI): read-out: TGI (total growth inhibition concentration)
Procedure: (§2) Screening against the cancer cell lines was carried out at the National Cancer Institute (NCI, Bethesda, Maryland, USA) applying the standard protocol of the NCI[22].

[2] = test system: OVCAR-4 ovarian cancer cell line; test: NCI five-dose testing; type: cell-based; details: for IC (TGI): read-out: TGI (total growth inhibition concentration)
Procedure: as §2

[3] = test system: MDA-MB-468 breast cancer cell line; test: NCI five-dose testing; type: cell-based; details: for IC (TGI): read-out: TGI (total growth inhibition concentration)
Procedure: as §2

[4] = test system: A498 renal cancer cell line; test: NCI five-dose testing; type: cell-based; details: for IC (TGI): read-out: TGI (total growth inhibition concentration)
Procedure: as §2

[5] = test system: HOP-92 non-small cell lung cancer cell line; test: NCI five-dose testing; type: cell-based; details: for IC (TGI): read-out: TGI (total growth inhibition concentration)
Procedure: as §2

[6] = test system: PC-3 prostate cancer cell line; test: NCI five-dose testing; type: cell-based; details: for IC50: read-out: IC50; for IC (TGI): read-out: TGI (total growth inhibition concentration)
Procedure: as §2

[7] = test system: SK-MEL-5 melanoma cell line; test: NCI five-dose testing; type: cell-based; details: for IC (TGI): read-out: TGI (total growth inhibition concentration)
Procedure: as §2

[8] = test system: U251 CNS cancer cell line; test: NCI five-dose testing; type: cell-based; details: for IC50: read-out: IC50; for IC (TGI): read-out: TGI (total growth inhibition concentration)
Procedure: as §2

[9] = test system: HT-29 colon cancer cell line; test: NCI five-dose testing; type: cell-based; details: for IC50: read-out: IC50; for IC (TGI): read-out: TGI (total growth inhibition concentration)
Procedure: as §2

melanoma cell lines = test: NCI five-dose testing, subpanel mean; type: cell-based; details: subpanel V: melanoma
Procedure: as §2

CNS cancer cell lines = test: NCI five-dose testing, subpanel mean; type: cell-based; details: subpanel IV: CNS cancer
Procedure: as §2

colon cancer cell lines = test: NCI five-dose testing, subpanel mean; type: cell-based; details: subpanel III: colon cancer
Procedure: as §2

Leukaemia cell lines = test: NCI five-dose testing, subpanel mean; type: cell-based; details: subpanel I: Leukaemia
Procedure: as §2

[10] = test system: prostate cancer cell lines; test: NCI five-dose testing, subpanel mean; type: cell-based; details: subpanel VIII: prostate cancer
Procedure: as §2

[11] = test system: non-small cell lung cancer cell lines; test: NCI five-dose testing, subpanel mean; type: cell-based; details: subpanel II: non-small cell lung cancer
Procedure: as §2

breast cancer cell lines = test: NCI five-dose testing, subpanel mean; type: cell-based; details: subpanel IX: breast cancer
Procedure: as §2

[12] = test system: ovarian cancer cell lines; test: NCI five-dose testing, subpanel mean; type: cell-based; details: subpanel VI: ovarian cancer
Procedure: as §2

renal cancer cell lines = test: NCI five-dose testing, subpanel mean; type: cell-based; details: subpanel VII: renal cancer
Procedure: as §2

T-47D cell line = test: NCI-60 single-dose screening; type: cell-based; details: 10 µM
Procedure: as §2
(§3) The final target compounds were submitted to the National Cancer Institute (NCI), Maryland, USA[23]. Thirty-one compounds were selected to be tested over 60 cell lines at single dose 10 µM.

[13] = test system: Colo 205 colon cancer cell line; test: NCI-60 single-dose screening; type: cell-based; details: 10 µM
Procedure: as §2, §3

[14] = test system: SK-MEL-5 melanoma cell line; test: NCI-60 single-dose screening; type: cell-based; details: 10 µM
Procedure: as §2, §3

[15] = test system: HT29 colon cancer cell line; test: NCI-60 single-dose screening; type: cell-based; details: 10 µM
Procedure: as §2, §3

NCI-60 cell line panel = test: NCI-60 single-dose (10 µM) antiproliferative screening, mean over panel; type: cell-based; details: single-dose 10 µM
Procedure: as §2, §3

T1 sequence (P49841 whole entry): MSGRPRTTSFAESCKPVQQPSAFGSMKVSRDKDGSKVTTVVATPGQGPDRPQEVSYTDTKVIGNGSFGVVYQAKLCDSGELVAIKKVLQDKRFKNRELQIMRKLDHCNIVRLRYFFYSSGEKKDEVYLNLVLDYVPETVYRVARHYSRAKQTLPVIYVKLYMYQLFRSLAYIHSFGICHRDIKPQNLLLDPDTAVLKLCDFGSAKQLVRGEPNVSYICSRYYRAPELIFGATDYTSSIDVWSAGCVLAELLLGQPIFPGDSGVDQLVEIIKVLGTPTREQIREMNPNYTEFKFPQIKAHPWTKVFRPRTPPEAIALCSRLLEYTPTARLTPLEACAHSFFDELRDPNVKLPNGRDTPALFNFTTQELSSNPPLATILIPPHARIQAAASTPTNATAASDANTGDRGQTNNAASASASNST

## O=S(=O)(NCCNc1cc(-c2cn(-c3ccccc3)nc2-c2cccc(O)c2)ccn1)c1ccc(Cl)cc1 [Compound 1l, 4-Chloro-N-(2-((4-(3-(3-hydroxyphenyl)-1-phenyl-1H-pyrazol-4-yl)pyridin-2-yl)amino)ethyl) benzenesulfonamide]
GSK3b
  Inhibition %: 15.88 ± 0.21%
CDK2/cyclin E
  Inhibition %: 8.36 ± 0.95%
JNK2
  Inhibition %: 44.68 ± 0.01%
BRAF (V600E)
  Inhibition %: 48.09 ± 0.45%
EGFR
  Inhibition %: 10.33 ± 3.40%
P38a/MAPK14
  Inhibition %: 68.43 ± 0.59%
BRAF
  Inhibition %: 21.28 ± 0.21%
ABL1 (T315I)
  Inhibition %: 6.39 ± 0.35%
JNK3
  Inhibition %: 35.70 ± 0.04%
IKKb/IKBKB
  Inhibition %: 7.80 ± 0.10%
JNK1
  Inhibition %: 53.79 ± 0.04%
[1]; K-562
  IC50: 1.98 µM
  LD50 (lethal dose 50): >100 µM
  IC (TGI): 5.4 µM
[2]; OVCAR-4
  IC50: 4.37 µM
  LD50 (lethal dose 50): >100 µM
  IC (TGI): >100 µM
[3]; MDA-MB-468
  IC50: 2.78 µM
  LD50 (lethal dose 50): >100 µM
  IC (TGI): 7.66 µM
[4]; A498
  IC50: 2.63 µM
  LD50 (lethal dose 50): 57.1 µM
  IC (TGI): 9.5 µM
[5]; HOP-92
  IC50: 2.34 µM
  LD50 (lethal dose 50): 70.5 µM
  IC (TGI): 8.3 µM
[6]; PC-3
  LD50 (lethal dose 50): >100 µM
  IC50: 2.45 µM
  IC (TGI): 12.0 µM
[7]; SK-MEL-5
  IC50: 2.02 µM
  LD50 (lethal dose 50): 7.9 µM
  IC (TGI): 4.0 µM
[8]; U251
  LD50 (lethal dose 50): 45.9 µM
  IC50: 3.21 µM
  IC (TGI): 11.4 µM
[9]; HT-29
  LD50 (lethal dose 50): 61.8 µM
  IC50: 2.24 µM
  IC (TGI): 5.2 µM
Melanoma cell lines
  IC50: 2.38 µM
CNS cancer cell lines
  IC50: 2.85 µM
Colon cancer cell lines
  IC50: 2.46 µM
Leukaemia cell lines
  IC50: 2.44 µM
[10]
  IC50: 3.03 µM
[11]
  IC50: 3.16 µM
Breast cancer cell lines
  IC50: 2.48 µM
[12]
  IC50: 3.29 µM
Renal cancer cell lines
  IC50: 3.18 µM

## COc1cccc(-c2nn(-c3ccccc3)cc2-c2ccnc(NCCCNS(=O)(=O)c3ccc(Br)cc3)c2)c1 [Compound 2b, 4-Bromo-N-(3-((4-(3-(3-methoxyphenyl)-1-phenyl-1H-pyrazol-4-yl)pyridin-2-yl)amino)propyl) benzenesulfonamide]
T-47D cell line
  per cent inhibition: 83.30%

## COc1cccc(-c2nn(-c3ccccc3)cc2-c2ccnc(NCCCNS(=O)(=O)c3ccc(C(F)(F)F)cc3)c2)c1 [Compound 2g, N-(3-((4-(3-(3-Methoxyphenyl)-1-phenyl-1H-pyrazol-4-yl)pyridin-2-yl)amino)propyl)-4-(trifluoromethyl)benzenesulfonamide]
[13]
  per cent inhibition: lethal effect
[14]
  per cent inhibition: lethal effect
[15]
  per cent inhibition: lethal effect
NCI-60 cell line panel; 60-cancer cell line screening
  inhibition at 10 µM: 76.5%
NCI-60 cell line panel; NCI-60 panel
  number of cell lines with more than 100% inhibition: 13
[1]; Homo sapiens, K562, read-out: LD50 (lethal dose 50)
  CC50: > 100 µM
[1]; Homo sapiens, K562, K-562
  IC50: 3.06 µM
  IC (TGI): > 100 µM
[2]; Homo sapiens, OVCAR-4
  IC50: 4.36 µM
  IC (TGI): > 100 µM
[2]; Homo sapiens, OVCAR-4, read-out: LD50 (lethal dose 50)
  LC50 (lethal concentration 50): > 100 µM
[3]; Homo sapiens, MDA-MB-468
  IC50: 3.11 µM
  IC (TGI): > 100 µM
[3]; Homo sapiens, MDA-MB-468, read-out: LD50 (lethal dose 50)
  CC50: > 100 µM
[4]; Homo sapiens, A498
  IC50: 3.8 µM
  IC (TGI): > 100 µM
[4]; Homo sapiens, A498, read-out: LD50 (lethal dose 50)
  LC50 (lethal concentration 50%): > 100 µM
[5]; Homo sapiens, HOP-92
  IC50: 3.68 µM
[5]; Homo sapiens, HOP-92, HOP-92
  IC (TGI): > 100 µM
[5]; Homo sapiens, HOP-92, read-out: LD50 (lethal dose 50)
  LD50 (lethal dose 50): > 100 µM
[6]; Homo sapiens, PC-3, read-out: LD50 (lethal dose 50)
  LC50 (lethal concentration 50): > 100 µM
[6]; Homo sapiens, PC-3
  IC50: 3.36 µM
  IC (TGI): > 100 µM
[7]; Homo sapiens, SK-MEL-5
  IC50: 2.18 µM
  IC (TGI): 5 µM
[7]; Homo sapiens, SK-MEL-5, read-out: LD50 (lethal dose 50)
  LC50 (lethal concentration 50): 23.1 µM
[8]; Homo sapiens, U-251, read-out: LD50 (lethal dose 50)
  CC50: > 100 µM
[8]; Homo sapiens, U-251, U251
  IC50: 5.63 µM
  IC (TGI): > 100 µM
[9]; Homo sapiens, HT-29, read-out: LD50 (lethal dose 50)
  CC50: > 100 µM
[9]; Homo sapiens, HT-29
  IC50: 3.21 µM
  IC (TGI): 10 µM
Melanoma cell lines
  IC50: 4.94 µM
CNS cancer cell lines
  IC50: 5.28 µM
Colon cancer cell lines
  IC50: 4.91 µM
Leukaemia cell lines
  IC50: 3.35 µM
[10]
  IC50: 13 µM
[11]
  IC50: 6.36 µM
Breast cancer cell lines
  IC50: 4.05 µM
[12]
  IC50: 6.1 µM
Renal cancer cell lines
  IC50: 5.32 µM
